According to US20240116998A1, “GLUCAGON-LIKE PEPTIDE-1 RECEPTOR ANTAGONISTS” (INDIANA UNIVERSITY RESEARCH AND TECHNOLOGY CORPORATION, priority 2021, published 2024):
≈ marks a conversion by molar mass, not a printed value. Starred links: 1 amine or outer side, 2 acyl side, 3 side chain; linkers in the order of their positions; H or OH if unused. Non-standard residues stand in square brackets, D forms with d. Residues, ends and D or L forms follow the SMILES beside them. Groups on a side chain read outwards from the residue. *: point of attachment. γGlu = O=C(O)[C@H](CCC(=O)[*:2])N[*:1]; Palmitoyl = CCCCCCCCCCCCCCCC(=O)*; AEEA = NCCOCCOCC(=O)O; Aib = CC(C)(N)C(=O)O

Key:
human GLP-1 receptor = molecular target: T1, human GLP-1 receptor (Homo sapiens, UniProt P43220); assay: GLP-1 receptor-mediated cAMP induction, luciferase reporter gene assay (antagonism mode); type: cell-based; details: Table 2; HEK 293 cells, human GLP-1R, vs 0.05 nM GLP-1; read-out: Bioactivity IC50
T1 construct: host or cells: HEK 293
Description: GLP-1 Receptor-Mediated cAMP Induction
The ability of peptides to stimulate or block cAMP induction at the GLP-1 receptor was examined by a luciferase-based reporter gene assay. Cotransfection of HEK 293 cells with the human GLP-1 receptor (Open Biosystems) and a cAMPinducible (cAMPresponsive element) luciferase gene constituted the cellular construct where receptor activation could be measured. Bioassays were performed by first serum depriving the cells for 16 h in 0.25% bovine growth serum (HyClone)-supplemented Dulbecco's modified Eagle's medium (Invitrogen) and then adding serial dilutions of the peptides over the appropriate concentration ranges in 96-well poly-D-lysine-coated plates (BD Biosciences). For antagonism assays, a constant concentration of GLP-1 (0.05 nM) was added to the assay plate after the diluted peptides. Incubation continued for 5 h at 37° C., 5% CO2 and was followed by the addition of an equivalent volume (100 μL) of LucLite luminescence substrate reagent (Perkin-Elmer). MicroBeta 1450 liquid scintillation counting (Perkin-Elmer) quantified the luminescence signal in counts per second (cps) after shaking the plate at 600 rpm for 3 min. Data was plotted using Origin software (OriginLab) and the effective concentration 50 (EC50) or inhibitory concentration 50 (IC50) was determined by sigmoidal fitting. Potency was determined by comparative analysis of relative EC50 or IC50 values. Each experiment was repeated at least three times with each sample assayed in duplicate.

[1] = Solubility of peptides in buffer; type: physicochemical
C57B1/6 mice = assay: Glucose tolerance test after subcutaneous GLP-1 antagonist (acute in vivo study); details: s.c. antagonist, i.p. glucose 1.5 g/kg four hours later
Description: FIGS. 2A & 2B present data from a glucose tolerance test wherein mice are subcutaneously administered the GLP-1 antagonist followed four hours later by intraperitoneal administration of glucose (1.5 g glucose per kg body weight).
C57B1/6 mice were obtained from Jackson Laboratories. Mice were single- or group-housed on a 12:12 h light-dark cycle at 22° C. with free access to food and water. All studies were approved by and performed according to the guidelines of the Institutional Animal Care and Use Committee of the University of Cincinnati.
For the determination of glucose tolerance, mice were subjected to 6 h of fasting and injected intraperitoneally with glucose. Injections consisted of 1.5 g glucose per kg body weight (25% w/v D-glucose (Sigma) in 0.9% w/v saline). Tail blood glucose levels (mg dL-1) were measured using a hand-held glucometer (FreeStyle Freedom Lite) before 0 min and at 15, 30, 60, and 120 min after injection.
Mice received a subcutaneous injection of peptide (in PBS) either 1, 4, 8, 24, 48, 72, or 120 at varying doses before being challenged with an IP injection of dipeptidyl peptidase-IV-protected Ex-4 (0.65 nmol kg−1). A GTT was performed fifteen minutes after the GLP-1 injection. Tail blood glucose values were obtained as described above.

T1 sequence (P43220 24-463): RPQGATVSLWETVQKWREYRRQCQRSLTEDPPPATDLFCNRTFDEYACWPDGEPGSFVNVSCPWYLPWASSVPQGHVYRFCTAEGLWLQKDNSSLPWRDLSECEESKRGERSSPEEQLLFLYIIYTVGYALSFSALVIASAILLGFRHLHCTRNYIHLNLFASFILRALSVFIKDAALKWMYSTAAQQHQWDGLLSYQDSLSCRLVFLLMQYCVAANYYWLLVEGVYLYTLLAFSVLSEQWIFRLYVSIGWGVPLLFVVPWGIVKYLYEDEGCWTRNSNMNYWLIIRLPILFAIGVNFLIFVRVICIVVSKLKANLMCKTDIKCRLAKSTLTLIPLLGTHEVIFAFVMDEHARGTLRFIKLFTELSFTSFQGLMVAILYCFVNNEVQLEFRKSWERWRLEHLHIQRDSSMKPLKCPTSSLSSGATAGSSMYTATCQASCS

CCCCCCCCCCCCCCCC(=O)NCCOCCOCC(=O)NCCOCCOCC(=O)N[C@@H](CCC(=O)N[C@@H](CCC(=O)NCCCC[C@H](NC(=O)[C@H](CO)NC(=O)[C@@H]1CCCN1C(=O)[C@@H]1CCCN1C(=O)[C@@H]1CCCN1C(=O)[C@H](C)NC(=O)CNC(=O)[C@H](CO)NC(=O)[C@H](CO)NC(=O)[C@@H]1CCCN1C(=O)CNC(=O)CNC(=O)[C@H](CCCCN)NC(=O)[C@@H](NC(=O)[C@H](CC(C)C)NC(=O)[C@H](Cc1c[nH]c2ccccc12)NC(=O)[C@H](C)NC(=O)[C@@H](NC(=O)[C@H](Cc1ccccc1)NC(=O)[C@H](CCC(=O)O)NC(=O)[C@H](CCCNC(=N)N)NC(=O)[C@@H](NC(=O)[C@H](C)NC(=O)[C@H](CCC(N)=O)NC(=O)[C@H](CCC(=O)O)NC(=O)[C@H](CCC(=O)O)NC(=O)[C@H](CC(C)C)NC(=O)[C@H](Cc1ccc(O)cc1)NC(=O)[C@H](CO)NC(=O)[C@H](CO)NC(=O)[C@@H](NC(=O)[C@@H](N)CC(=O)O)C(C)C)C(C)C)[C@@H](C)CC)C(C)C)C(N)=O)C(=O)O)C(=O)O [SEQ ID NO: 61] (H-DVSSYLEEQAVREFIAWLVKGGPSSGAPPPSK([γGlu-γGlu-AEEA-AEEA-Palmitoyl])-NH2; N-terminus assumed)
IC50 (human GLP-1 receptor): 6 nM
solubility ([1]; pH 7.7): > 25 mg/mL

CCCCCCCCCCCCCCCC(=O)N[C@@H](CCC(=O)N[C@@H](CCC(=O)NCCOCCOCC(=O)NCCOCCOCC(=O)NCCCC[C@H](NC(=O)[C@H](CO)NC(=O)[C@@H]1CCCN1C(=O)[C@@H]1CCCN1C(=O)[C@@H]1CCCN1C(=O)[C@H](C)NC(=O)CNC(=O)[C@H](CO)NC(=O)[C@H](CO)NC(=O)[C@@H]1CCCN1C(=O)CNC(=O)CNC(=O)[C@H](CCCCN)NC(=O)[C@@H](NC(=O)[C@H](CC(C)C)NC(=O)[C@H](Cc1c[nH]c2ccccc12)NC(=O)[C@H](C)NC(=O)[C@@H](NC(=O)[C@H](Cc1ccccc1)NC(=O)[C@H](CCC(=O)O)NC(=O)[C@H](CCCNC(=N)N)NC(=O)[C@@H](NC(=O)[C@H](C)NC(=O)[C@H](CCC(N)=O)NC(=O)[C@H](CCC(=O)O)NC(=O)[C@H](CCC(=O)O)NC(=O)[C@H](CC(C)C)NC(=O)[C@H](Cc1ccc(O)cc1)NC(=O)[C@H](CO)NC(=O)[C@H](CO)NC(=O)[C@@H](NC(=O)[C@@H](N)CC(=O)O)C(C)C)C(C)C)[C@@H](C)CC)C(C)C)C(N)=O)C(=O)O)C(=O)O [SEQ ID NO: 58] (H-DVSSYLEEQAVREFIAWLVKGGPSSGAPPPSK([AEEA-AEEA-γGlu-γGlu-Palmitoyl])-NH2; N-terminus assumed)
IC50 (human GLP-1 receptor): 11 nM

CCCCCCCCCCCCCCCC(=O)N[C@@H](CCC(=O)NCCOCCOCC(=O)NCCOCCOCC(=O)N[C@@H](CCC(=O)NCCCC[C@H](NC(=O)[C@H](CO)NC(=O)[C@@H]1CCCN1C(=O)[C@@H]1CCCN1C(=O)[C@@H]1CCCN1C(=O)[C@H](C)NC(=O)CNC(=O)[C@H](CO)NC(=O)[C@H](CO)NC(=O)[C@@H]1CCCN1C(=O)CNC(=O)CNC(=O)[C@H](CCCCN)NC(=O)[C@@H](NC(=O)[C@H](CC(C)C)NC(=O)[C@H](Cc1c[nH]c2ccccc12)NC(=O)[C@H](C)NC(=O)[C@@H](NC(=O)[C@H](Cc1ccccc1)NC(=O)[C@H](CCC(=O)O)NC(=O)[C@H](CCCNC(=N)N)NC(=O)[C@@H](NC(=O)[C@H](C)NC(=O)[C@H](CCC(N)=O)NC(=O)[C@H](CCC(=O)O)NC(=O)[C@H](CCC(=O)O)NC(=O)[C@H](CC(C)C)NC(=O)[C@H](Cc1ccc(O)cc1)NC(=O)[C@H](CO)NC(=O)[C@H](CO)NC(=O)[C@@H](NC(=O)[C@@H](N)CC(=O)O)C(C)C)C(C)C)[C@@H](C)CC)C(C)C)C(N)=O)C(=O)O)C(=O)O [SEQ ID NO: 57] (H-DVSSYLEEQAVREFIAWLVKGGPSSGAPPPSK([γGlu-AEEA-AEEA-γGlu-Palmitoyl])-NH2; N-terminus assumed)
IC50 (human GLP-1 receptor): 9 nM
solubility ([1]; pH 7.7): > 25 mg/mL

CCCCCCCCCCCCCCCC(=O)N[C@@H](CCC(=O)NCCOCCOCC(=O)NCCCC[C@H](NC(=O)[C@H](CO)NC(=O)[C@@H]1CCCN1C(=O)[C@@H]1CCCN1C(=O)[C@@H]1CCCN1C(=O)[C@H](C)NC(=O)CNC(=O)[C@H](CO)NC(=O)[C@H](CO)NC(=O)[C@@H]1CCCN1C(=O)CNC(=O)CNC(=O)[C@H](CCCNC(=N)N)NC(=O)[C@@H](NC(=O)[C@H](CC(C)C)NC(=O)[C@H](Cc1c[nH]c2ccccc12)NC(=O)[C@H](CCC(=O)O)NC(=O)[C@@H](NC(=O)[C@H](Cc1ccccc1)NC(=O)[C@H](CCC(=O)O)NC(=O)[C@H](CCCNC(=N)N)NC(=O)[C@@H](NC(=O)[C@H](C)NC(=O)[C@H](CCC(N)=O)NC(=O)[C@H](CCC(=O)O)NC(=O)[C@H](CCC(=O)O)NC(=O)[C@H](CC(C)C)NC(=O)[C@H](Cc1ccc(O)cc1)NC(=O)[C@H](CCCNC(=N)N)NC(=O)[C@H](CO)NC(=O)[C@@H](NC(=O)[C@@H](N)CC(=O)O)C(C)C)C(C)C)[C@@H](C)CC)C(C)C)C(=O)O)C(=O)O [SEQ ID NO: 16] (H-DVSRYLEEQAVREFIEWLVRGGPSSGAPPPSK([AEEA-γGlu-Palmitoyl])-OH)
GLP-1 antagonist activity in glucose tolerance test (C57B1/6 mice; FIG. 2A): full antagonist
Potency relative to the GLP-1 antagonist Ex-9-40 in glucose tolerance test (C57B1/6 mice; FIGS. 2A & 2B): much higher potency

CCCCCCCCCCCCCCCC(=O)NCCCC[C@H](NC(=O)[C@H](CO)NC(=O)[C@@H]1CCCN1C(=O)[C@@H]1CCCN1C(=O)[C@@H]1CCCN1C(=O)[C@H](C)NC(=O)CNC(=O)[C@H](CO)NC(=O)[C@H](CO)NC(=O)[C@@H]1CCCN1C(=O)CNC(=O)CNC(=O)[C@H](CCCCN)NC(=O)[C@@H](NC(=O)[C@H](CC(C)C)NC(=O)[C@H](Cc1c[nH]c2ccccc12)NC(=O)[C@H](C)NC(=O)[C@@H](NC(=O)[C@H](Cc1ccccc1)NC(=O)[C@H](CCC(=O)O)NC(=O)[C@H](CCCNC(=N)N)NC(=O)[C@@H](NC(=O)C(C)(C)NC(=O)[C@H](CCC(N)=O)NC(=O)[C@H](CCC(=O)O)NC(=O)[C@H](CCC(=O)O)NC(=O)[C@H](CC(C)C)NC(=O)[C@H](Cc1ccc(O)cc1)NC(=O)[C@H](CO)NC(=O)[C@H](CO)NC(=O)[C@@H](NC(=O)[C@@H](N)CC(=O)O)C(C)C)C(C)C)[C@@H](C)CC)C(C)C)C(N)=O [SEQ ID NO: 46] (H-DVSSYLEEQ[Aib]VREFIAWLVKGGPSSGAPPPSK(Palmitoyl)-NH2; N-terminus assumed)
solubility ([1]; pH 7.4): 0.7 mg/mL (≈ 0.192 mM)
